Results published in PubChem BioAssay (NCI).
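Protocol summary: plate cells (96-well), add compound at 5 concentrations, incubate 48 h, interpolate endpoints linearly. GI50: concentration for 50% inhibition of growth. TGI denotes the concentration required for complete inhibition of growth.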

Tests used:
Assay in all cases: growth of human tumour cells (NCI), 48 h
786-0 renal = system: 786-0 renal
A498 renal = system: A498 renal
ACHN renal = system: ACHN renal
CAKI-1 renal = system: CAKI-1 renal
CCRF-CEM leukemia = system: CCRF-CEM leukemia
COLO 205 colon = system: COLO 205 colon
DU-145 prostate = system: DU-145 prostate
HCT-116 colon = system: HCT-116 colon
HCT-15 colon = system: HCT-15 colon
HL-60(TB) leukemia = system: HL-60(TB) leukemia
HS 578T breast = system: HS 578T breast
HT29 colon = system: HT29 colon
IGROV1 ovarian = system: IGROV1 ovarian
K-562 leukemia = system: K-562 leukemia
M14 melanoma = system: M14 melanoma
MALME-3M melanoma = system: MALME-3M melanoma
MDA-MB-231 breast = system: MDA-MB-231 breast
MDA-MB-435 = system: MDA-MB-435
MOLT-4 leukemia = system: MOLT-4 leukemia
NCI-H226 lung = system: NCI-H226 lung
NCI-H522 lung = system: NCI-H522 lung
NCI/ADR-RES ovarian = system: NCI/ADR-RES ovarian
OVCAR-3 ovarian = system: OVCAR-3 ovarian
OVCAR-4 ovarian = system: OVCAR-4 ovarian
OVCAR-5 ovarian = system: OVCAR-5 ovarian
PC-3 prostate = system: PC-3 prostate
RPMI-8226 leukemia = system: RPMI-8226 leukemia
SF-539 CNS = system: SF-539 CNS
SK-MEL-2 melanoma = system: SK-MEL-2 melanoma
SK-MEL-28 melanoma = system: SK-MEL-28 melanoma
SK-MEL-5 melanoma = system: SK-MEL-5 melanoma
SK-OV-3 ovarian = system: SK-OV-3 ovarian
SN12C renal = system: SN12C renal
SNB-19 CNS = system: SNB-19 CNS
SNB-75 CNS = system: SNB-75 CNS
SR leukemia = system: SR leukemia
T-47D breast = system: T-47D breast
TK-10 renal = system: TK-10 renal
U251 CNS = system: U251 CNS
UACC-257 melanoma = system: UACC-257 melanoma
UACC-62 melanoma = system: UACC-62 melanoma
UO-31 renal = system: UO-31 renal

Structure (SMILES): Cn1cc(-c2cc3nc(-c4c[nH]c5ccc(Cl)cc45)cc(N)n3n2)c2ccccc21
- GI50 (786-0 renal): 1450 nM
- TGI (786-0 renal): 2830 nM
- GI50 (A498 renal): 1600 nM
- TGI (A498 renal): 3370 nM
- GI50 (ACHN renal): 1540 nM
- TGI (ACHN renal): 2870 nM
- GI50 (CAKI-1 renal): 1450 nM
- TGI (CAKI-1 renal): 2910 nM
- GI50 (CCRF-CEM leukemia): 3120 nM
- TGI (CCRF-CEM leukemia): 11200 nM
- GI50 (COLO 205 colon): 1800 nM
- TGI (COLO 205 colon): 3350 nM
- GI50 (DU-145 prostate): 1840 nM
- TGI (DU-145 prostate): 3320 nM
- GI50 (HCT-116 colon): 1620 nM
- TGI (HCT-116 colon): 2980 nM
- GI50 (HCT-15 colon): 1470 nM
- TGI (HCT-15 colon): 2910 nM
- GI50 (HL-60(TB) leukemia): 2020 nM
- TGI (HL-60(TB) leukemia): 4750 nM
- GI50 (HS 578T breast): 1910 nM
- TGI (HS 578T breast): 4800 nM
- GI50 (HT29 colon): 1560 nM
- TGI (HT29 colon): 2980 nM
- GI50 (IGROV1 ovarian): 1570 nM
- TGI (IGROV1 ovarian): 3130 nM
- GI50 (K-562 leukemia): 2580 nM
- TGI (K-562 leukemia): 8070 nM
- GI50 (M14 melanoma): 1680 nM
- TGI (M14 melanoma): 3140 nM
- GI50 (MALME-3M melanoma): 1610 nM
- TGI (MALME-3M melanoma): 2970 nM
- GI50 (MDA-MB-231 breast): 1790 nM
- TGI (MDA-MB-231 breast): 3230 nM
- GI50 (MDA-MB-435): 1720 nM
- TGI (MDA-MB-435): 3150 nM
- GI50 (MOLT-4 leukemia): 1620 nM
- TGI (MOLT-4 leukemia): 4180 nM
- GI50 (NCI-H226 lung): 1890 nM
- TGI (NCI-H226 lung): 5170 nM
- GI50 (NCI-H522 lung): 1600 nM
- TGI (NCI-H522 lung): 3230 nM
- GI50 (NCI/ADR-RES ovarian): 2110 nM
- TGI (NCI/ADR-RES ovarian): 4730 nM
- GI50 (OVCAR-3 ovarian): 2080 nM
- TGI (OVCAR-3 ovarian): 4390 nM
- GI50 (OVCAR-4 ovarian): 1910 nM
- TGI (OVCAR-4 ovarian): 4150 nM
- GI50 (OVCAR-5 ovarian): 1570 nM
- TGI (OVCAR-5 ovarian): 3040 nM
- GI50 (PC-3 prostate): 1640 nM
- TGI (PC-3 prostate): 3140 nM
- GI50 (RPMI-8226 leukemia): 2620 nM
- TGI (RPMI-8226 leukemia): 7210 nM
- GI50 (SF-539 CNS): 1640 nM
- TGI (SF-539 CNS): 3060 nM
- GI50 (SK-MEL-2 melanoma): 1810 nM
- TGI (SK-MEL-2 melanoma): 3540 nM
- GI50 (SK-MEL-28 melanoma): 1560 nM
- TGI (SK-MEL-28 melanoma): 2900 nM
- GI50 (SK-MEL-5 melanoma): 1670 nM
- TGI (SK-MEL-5 melanoma): 3100 nM
- GI50 (SK-OV-3 ovarian): 1910 nM
- TGI (SK-OV-3 ovarian): 3880 nM
- GI50 (SN12C renal): 1710 nM
- TGI (SN12C renal): 3170 nM
- GI50 (SNB-19 CNS): 1680 nM
- TGI (SNB-19 CNS): 3150 nM
- GI50 (SNB-75 CNS): 1500 nM
- TGI (SNB-75 CNS): 3240 nM
- GI50 (SR leukemia): 1660 nM
- TGI (SR leukemia): 5100 nM
- GI50 (T-47D breast): 1840 nM
- TGI (T-47D breast): 4140 nM
- GI50 (TK-10 renal): 1260 nM
- TGI (TK-10 renal): 2580 nM
- GI50 (U251 CNS): 1700 nM
- TGI (U251 CNS): 3290 nM
- GI50 (UACC-257 melanoma): 1690 nM
- TGI (UACC-257 melanoma): 3230 nM
- GI50 (UACC-62 melanoma): 1630 nM
- TGI (UACC-62 melanoma): 3060 nM
- GI50 (UO-31 renal): 1430 nM
- TGI (UO-31 renal): 2730 nM
